# Assay results: ChEMBL document CHEMBL1201861, “Genomics of Drug Sensitity in Cancer screening data, Wellcome Trust Sanger Institute”
# pIC50: −log10 of the molar value.
# What was measured:
# Experiment in all cases: cells
# Ca9-22 = assay type: functional, cell-based, Homo sapiens;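 further: growth inhibition of Ca9-22 cells, read out with a cell viability assay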
# Description: SANGER: Inhibition of human Ca9-22 cell growth in a cell viability assay.
# DU-145 = assay type: functional, cell-based, Homo sapiens
# Description: SANGER: Inhibition of human DU-145 cell growth in a cell viability assay.
# EFM-19 = assay type: functional, cell-based, Homo sapiens;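 further: growth inhibition of human EFM-19 cells, measured in a cell viability assay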
# Description: SANGER: Inhibition of human EFM-19 cell growth in a cell viability assay.
# GMS-10 = assay type: functional, cell-based, Homo sapiens;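 further: growth inhibition of GMS-10 cells, read out as cell viability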
# Description: SANGER: Inhibition of human GMS-10 cell growth in a cell viability assay.
# GP5d = assay type: functional, cell-based, Homo sapiens;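 further: growth inhibition of human GP5d cells, read out with a cell viability assay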
# Description: SANGER: Inhibition of human GP5d cell growth in a cell viability assay.
# HCC1937 = assay type: functional, cell-based, Homo sapiens;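 further: growth inhibition measured with a cell viability read-out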
# Description: SANGER: Inhibition of human HCC1937 cell growth in a cell viability assay.
# HEC-1 = assay type: functional, cell-based, Homo sapiens;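 further: growth inhibition of the cell line, read out with a cell viability assay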
# Description: SANGER: Inhibition of human HEC-1 cell growth in a cell viability assay.
# HGC-27 = assay type: functional, cell-based, Homo sapiens;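 further: growth inhibition of human HGC-27 cells, read out in a cell viability assay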
# Description: SANGER: Inhibition of human HGC-27 cell growth in a cell viability assay.
# HuP-T3 = assay type: functional, cell-based, Homo sapiens;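 further: HuP-T3 cell growth inhibition, read out with a cell viability assay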
# Description: SANGER: Inhibition of human HuP-T3 cell growth in a cell viability assay.
# KYSE-140 = assay type: functional, cell-based, Homo sapiens;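 further: cell viability assay measuring growth inhibition in human KYSE-140 cells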
# Description: SANGER: Inhibition of human KYSE-140 cell growth in a cell viability assay.
# KYSE-450 = assay type: functional, cell-based, Homo sapiens;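 further: cell growth inhibition measured by a viability assay in human KYSE-450 cells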
# Description: SANGER: Inhibition of human KYSE-450 cell growth in a cell viability assay.
# LCLC-103H cell line = assay type: functional, cell-based, Homo sapiens
# Description: SANGER: Inhibition of human LCLC-103H cell growth in a cell viability assay.
# LK-2 = assay type: functional, cell-based, Homo sapiens;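 further: growth inhibition of LK-2 cells, read out with a viability assay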
# Description: SANGER: Inhibition of human LK-2 cell growth in a cell viability assay.
# M14 = assay type: functional, cell-based, Homo sapiens;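 further: growth inhibition of M14 cells, read out with a cell viability assay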
# Description: SANGER: Inhibition of human M14 cell growth in a cell viability assay.
# MDA-MB-231 = assay type: functional, cell-based, Homo sapiens
# Description: SANGER: Inhibition of human MDA-MB-231 cell growth in a cell viability assay.
# MG-63 = assay type: functional, cell-based, Homo sapiens;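 further: growth inhibition of human MG-63 cells, read out with a cell viability assay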
# Description: SANGER: Inhibition of human MG-63 cell growth in a cell viability assay.
# MIA PaCa-2 = assay type: functional, cell-based, Homo sapiens;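 further: growth inhibition of MIA PaCa-2 cells, read out with a cell viability assay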
# Description: SANGER: Inhibition of human MIA-PaCa-2 cell growth in a cell viability assay.
# MeWo = assay type: functional, cell-based, Homo sapiens;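 further: growth inhibition of MeWo cells, determined by a cell viability readout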
# Description: SANGER: Inhibition of human Mewo cell growth in a cell viability assay.
# NCI-H1048 = assay type: functional, cell-based, Homo sapiens;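 further: growth inhibition of human NCI-H1048 cells, read out with a cell viability assay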
# Description: SANGER: Inhibition of human NCI-H1048 cell growth in a cell viability assay.
# NCI-H1623 = assay type: functional, cell-based, Homo sapiens;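 further: cell viability assay used as the read-out for growth inhibition of NCI-H1623 cells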
# Description: SANGER: Inhibition of human NCI-H1623 cell growth in a cell viability assay.
# NCI-H1693 = assay type: functional, cell-based, Homo sapiens;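 further: growth inhibition of the human cell line, read out with a cell viability assay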
# Description: SANGER: Inhibition of human NCI-H1693 cell growth in a cell viability assay.
# NCI-H1793 = assay type: functional, cell-based, Homo sapiens;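 further: cell growth inhibition, read out by a cell viability assay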
# Description: SANGER: Inhibition of human NCI-H1793 cell growth in a cell viability assay.
# PA-1 = assay type: functional, cell-based, Homo sapiens;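 further: IC50 for suppression of PA-1 cell proliferation, determined with a cell viability read-out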
# Description: SANGER: Inhibition of human PA-1 cell growth in a cell viability assay.
# SJRH30 = assay type: functional, cell-based, Homo sapiens;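 further: growth inhibition of human SJRH30 cells, read out with a cell viability assay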
# Description: SANGER: Inhibition of human SJRH30 cell growth in a cell viability assay.
# SK-HEP1 = assay type: functional, cell-based, Homo sapiens, SK-HEP-1;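 further: cell viability readout used to quantify reduction in proliferation of human SK-HEP-1 cells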
# Description: SANGER: Inhibition of human SK-HEP-1 cell growth in a cell viability assay.
# SK-MEL-24 = assay type: functional, cell-based, Homo sapiens;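 further: growth inhibition read out by a cell viability assay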
# Description: SANGER: Inhibition of human SK-MEL-24 cell growth in a cell viability assay.
# SK-MEL-30 = assay type: functional, cell-based, Homo sapiens;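 further: growth inhibition of SK-MEL-30 cells, determined with a cell viability assay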
# Description: SANGER: Inhibition of human SK-MEL-30 cell growth in a cell viability assay.
# SW780 = assay type: functional, cell-based, Homo sapiens;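 further: growth inhibition of the cells, read out with a cell viability assay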
# Description: SANGER: Inhibition of human SW780 cell growth in a cell viability assay.
# CWR22R = assay type: functional, cell-based, Homo sapiens;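 further: growth inhibition of 22Rv1 cells, read out with a cell viability assay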
# Description: SANGER: Inhibition of human 22RV1 cell growth in a cell viability assay.
# 769-P = assay type: functional, cell-based, Homo sapiens
# Description: SANGER: Inhibition of human 769-P cell growth in a cell viability assay.
# A673 = assay type: functional, cell-based, Homo sapiens;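 further: growth inhibition of human A673 cells, read out through a cell viability assay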
# Description: SANGER: Inhibition of human A673 cell growth in a cell viability assay.
# CAL-27 = assay type: functional, cell-based, Homo sapiens;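 further: Viability-based readout, IC50 reflecting inhibition of CAL-27 cell growth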
# Description: SANGER: Inhibition of human CAL-27 cell growth in a cell viability assay.
# CAL-39 = assay type: functional, cell-based, Homo sapiens;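 further: cell viability assay measuring growth inhibition of CAL-39 cells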
# Description: SANGER: Inhibition of human CAL-39 cell growth in a cell viability assay.
# CAL-51 = assay type: functional, cell-based, Homo sapiens;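 further: human CAL-51 cell line, growth inhibition read out via a cell viability assay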
# Description: SANGER: Inhibition of human CAL-51 cell growth in a cell viability assay.
# CAL-62 = assay type: functional, cell-based, Homo sapiens;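 further: growth inhibition of CAL-62 cells, read out with a cell viability assay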
# Description: SANGER: Inhibition of human CAL-62 cell growth in a cell viability assay.
# WM-115 = assay type: functional, cell-based, Homo sapiens
# Description: SANGER: Inhibition of human WM-115 cell growth in a cell viability assay.
# CHP-212 = assay type: functional, cell-based, Homo sapiens
# Description: SANGER: Inhibition of human CHP-212 cell growth in a cell viability assay.
compound,measurement,setting,value
CS(=O)(=O)c1ccc(C(=O)Nc2ccc(Cl)c(-c3ccccn3)c2)c(Cl)c1 [VISMODEGIB],pIC50,"Ca9-22; Homo sapiens, Ca9-22",< 5.00
same,pIC50,"DU-145; Homo sapiens, DU-145",< 5.00
same,pIC50,"EFM-19; Homo sapiens, EFM-19",< 5.00
same,pIC50,"GMS-10; Homo sapiens, GMS-10",< 5.00
same,pIC50,"GP5d; Homo sapiens, GP5d",< 5.00
same,pIC50,"HCC1937; Homo sapiens, HCC1937",< 5.00
same,pIC50,"HEC-1; Homo sapiens, HEC-1",< 5.00
same,pIC50,"HGC-27; Homo sapiens, HGC-27",< 5.00
same,pIC50,"HuP-T3; Homo sapiens, HuP-T3",< 5.00
same,pIC50,"KYSE-140; Homo sapiens, KYSE-140",< 5.00
same,pIC50,"KYSE-450; Homo sapiens, KYSE-450",< 5.00
same,pIC50,"LCLC-103H cell line; Homo sapiens, LCLC-103H",< 5.00
same,pIC50,"LK-2; Homo sapiens, LK-2",< 5.00
same,pIC50,"M14; Homo sapiens, M14",< 5.00
same,pIC50,"MDA-MB-231; Homo sapiens, MDA-MB-231",< 5.00
same,pIC50,"MG-63; Homo sapiens, MG-63",< 5.00
same,pIC50,"MIA PaCa-2; Homo sapiens, MIA PaCa-2",< 5.00
same,pIC50,"MeWo; Homo sapiens, MeWo",< 5.00
same,pIC50,"NCI-H1048; Homo sapiens, NCI-H1048",< 5.00
same,pIC50,"NCI-H1623; Homo sapiens, NCI-H1623",< 5.00
same,pIC50,"NCI-H1693; Homo sapiens, NCI-H1693",< 5.00
same,pIC50,"NCI-H1793; Homo sapiens, NCI-H1793",< 5.00
same,pIC50,"PA-1; Homo sapiens, PA-1",< 5.00
same,pIC50,"SJRH30; Homo sapiens, SJRH30",< 5.00
same,pIC50,"SK-HEP1; Homo sapiens, SK-HEP1",< 5.00
same,pIC50,"SK-MEL-24; Homo sapiens, SK-MEL-24",< 5.00
same,pIC50,"SK-MEL-30; Homo sapiens, SK-MEL-30",< 5.00
same,pIC50,"SW780; Homo sapiens, SW780",< 5.00
same,pIC50,"CWR22R; Homo sapiens, 22Rv1",< 5.00
same,pIC50,"769-P; Homo sapiens, 769-P",< 5.00
same,pIC50,"A673; Homo sapiens, A673",< 5.00
same,pIC50,"CAL-27; Homo sapiens, CAL-27",< 5.00
same,pIC50,"CAL-39; Homo sapiens, CAL-39",< 5.00
same,pIC50,"CAL-51; Homo sapiens, CAL-51",< 5.00
same,pIC50,"CAL-62; Homo sapiens, CAL-62",< 5.00
same,pIC50,"WM-115; Homo sapiens, WM-115",< 5.00
same,pIC50,"CHP-212; Homo sapiens, CHP-212",< 5.00
CISPLATIN,pIC50,Ca9-22; ca9-22,4.98
same,pIC50,DU-145; du-145,4.95
same,pIC50,EFM-19; efm-19,3.61
same,pIC50,GMS-10; gms-10,4.07
same,pIC50,GP5d; gp5d,4.62
same,pIC50,HCC1937; hcc1937,3.86
same,pIC50,HEC-1; hec-1,4.88
same,pIC50,HGC-27; hgc-27,5.18
same,pIC50,HuP-T3; hup-t3,4.27
same,pIC50,KYSE-140; kyse-140,5.12
same,pIC50,KYSE-450; kyse-450,4.14
same,pIC50,LCLC-103H cell line; lclc-103h,4.55
same,pIC50,LK-2; lk-2,4.35
same,pIC50,M14; m14,5.55
same,pIC50,MDA-MB-231; mda-mb-231,3.58
same,pIC50,MG-63; mg-63,4.00
same,pIC50,MIA PaCa-2; mia paca-2,5.27
same,pIC50,MeWo; mewo,4.78
same,pIC50,NCI-H1048; nci-h1048,5.01
same,pIC50,NCI-H1623; nci-h1623,4.33
same,pIC50,NCI-H1693; nci-h1693,3.91
same,pIC50,NCI-H1793; nci-h1793,4.72
same,pIC50,PA-1; pa-1,6.10
same,pIC50,SJRH30; sjrh30,4.01
same,pIC50,SK-HEP1; sk-hep-1,4.54
same,pIC50,SK-MEL-24; sk-mel-24,4.36
same,pIC50,SK-MEL-30; sk-mel-30,3.32
same,pIC50,SW780; sw780,4.85
same,pIC50,CWR22R; cwr22r,4.60
same,pIC50,769-P; 769-p,4.79
same,pIC50,A673; a673,5.66
same,pIC50,CAL-27; cal-27,5.17
same,pIC50,CAL-39; cal-39,3.54
same,pIC50,CAL-51; cal-51,4.78
same,pIC50,CAL-62; cal-62,3.52
same,pIC50,WM-115; wm-115,4.48
same,pIC50,CHP-212; chp-212,4.59
COc1cc2c(Nc3ccc(NC(=O)c4ccccc4)cc3)ncnc2cc1OCCCN1CCOCC1,pIC50,"Ca9-22; Homo sapiens, Ca9-22",5.48
same,pIC50,"DU-145; Homo sapiens, DU-145",< 5.40
same,pIC50,"EFM-19; Homo sapiens, EFM-19",< 5.40
same,pIC50,"GMS-10; Homo sapiens, GMS-10",< 5.40
same,pIC50,"GP5d; Homo sapiens, GP5d",< 5.40
same,pIC50,"HCC1937; Homo sapiens, HCC1937",< 5.40
same,pIC50,"HEC-1; Homo sapiens, HEC-1",< 5.40
same,pIC50,"HGC-27; Homo sapiens, HGC-27",< 5.40
same,pIC50,"HuP-T3; Homo sapiens, HuP-T3",< 5.40
same,pIC50,"KYSE-140; Homo sapiens, KYSE-140",< 5.40
same,pIC50,"KYSE-450; Homo sapiens, KYSE-450",< 5.40
same,pIC50,"LCLC-103H cell line; Homo sapiens, LCLC-103H",< 5.40
same,pIC50,"LK-2; Homo sapiens, LK-2",5.78
same,pIC50,"M14; Homo sapiens, M14",< 5.40
same,pIC50,"MDA-MB-231; Homo sapiens, MDA-MB-231",< 5.40
same,pIC50,"MG-63; Homo sapiens, MG-63",< 5.40
same,pIC50,"MIA PaCa-2; Homo sapiens, MIA PaCa-2",5.41
same,pIC50,"MeWo; Homo sapiens, MeWo",< 5.40
same,pIC50,"NCI-H1048; Homo sapiens, NCI-H1048",5.74
same,pIC50,"NCI-H1623; Homo sapiens, NCI-H1623",< 5.40
same,pIC50,"NCI-H1693; Homo sapiens, NCI-H1693",< 5.40
same,pIC50,"NCI-H1793; Homo sapiens, NCI-H1793",< 5.40
same,pIC50,"PA-1; Homo sapiens, PA-1",5.54
same,pIC50,"SJRH30; Homo sapiens, SJRH30",< 5.40
same,pIC50,"SK-HEP1; Homo sapiens, SK-HEP1",< 5.40
same,pIC50,"SK-MEL-24; Homo sapiens, SK-MEL-24",< 5.40
same,pIC50,"SK-MEL-30; Homo sapiens, SK-MEL-30",< 5.40
same,pIC50,"SW780; Homo sapiens, SW780",5.51
same,pIC50,"CWR22R; Homo sapiens, 22Rv1",< 5.40
same,pIC50,"769-P; Homo sapiens, 769-P",< 5.40
same,pIC50,"A673; Homo sapiens, A673",< 5.40
same,pIC50,"CAL-27; Homo sapiens, CAL-27",< 5.40
same,pIC50,"CAL-39; Homo sapiens, CAL-39",< 5.40
same,pIC50,"CAL-51; Homo sapiens, CAL-51",5.74
same,pIC50,"CAL-62; Homo sapiens, CAL-62",< 5.40
same,pIC50,"WM-115; Homo sapiens, WM-115",< 5.40
same,pIC50,"CHP-212; Homo sapiens, CHP-212",5.83
